The text below walks through data of article PMC8508980, “Design, Synthesis and Anticancer Profile of New 4-(1H-benzo[d]imidazol-1-yl)pyrimidin-2-amine-Linked Sulfonamide Derivatives with V600EBRAF Inhibitory Effect” (International Journal of Molecular Sciences, 2021).

Holding throughout (format): cell-based
For one assay, the system named is SK-MEL-5 cells. The assay is described as follows: Antiproliferative MTT assay. The settings on record: Homo sapiens, 48 h, mean ± S.D. of two experiments. The procedure, abridged: (§1)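 A375 and SK-MEL-5 cells in DMEM with 10% FBS, seeded 5 × 10^3 cells/well and grown 24 h at 37 °C before 48 h exposure to 12-point 3-fold compound dilutions. Viability by MTT reduction read at 590 nm; IC50 values fitted from concentration curves.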
For orientation: Tetrazolium dyes change colour on reduction, which living cells bring about.

A further assay has as its system A375 cells. Briefly: Antiproliferative MTT assay. Particulars: Homo sapiens, A-375, 48 h, mean ± S.D. of two experiments. In a few lines:
as §1

For another assay, the system named is LOX IMVI. The assay is described as follows: NCI 60 cell line screen. The settings on record: Homo sapiens, Melanoma, read-out: Percent growth. The protocol: (§2) Anticancer profiling over a panel of 60 cancer cell lines was carried out at the National Cancer Institute (NCI), Bethesda, Maryland, USA, https://dtp.cancer.gov/discovery_development/nci-60/methodology.htm (Last visit 22 September 2021), using the standard procedure (detailed procedure is located in the Supplementary Information page 50 s).
(§3) NCI standard procedure for 60 cell lines assay
(§4) The human tumor cell lines of the cancer screening panel are grown in RPMI 1640 mediu m containing 5% fetal bovine serum and 2 mM L-glutamine. For a typical screening experiment, cells are inoculated into 96 well microtiter plates in 100 μL at plating densities ranging from 5,000 to 40,000 cells/well depending on the doubling time of individual cell lines. After cell inoculation, the microtiter plates are incubated at 37° C, 5 % CO2, 95 % air and 100 % relative humidity for 24 h prior to addition of experimental drugs.
(§5) After 24 h, two plates of each cell line are fixed in situ with TCA, to represent a measurement of the cell population for each cell line at the time of drug addition (Tz). Experimental drugs are solubilized in dimethyl sulfoxide at 400-fold the desired final maximum test concentration (10 µM) and stored frozen prior to use. At the time of drug addition, an aliquot of frozen concentrate is thawed and diluted to twice the desired final maximum test concentration with co mp lete medium containing 50 μg/ml gentamicin. Additional four, 10-fold or ½ log serial dilutions are made to provide a total of five drug concentrations plus control. Aliquots of 100 μl of these different drug dilutions are added to the appropriate microtiter wells already containing 100 μl of medium, resulting in the required final drug concentrations.
(§6) Following drug addition, the plates are incubated for an additional 48 h at 37°C, 5 % CO2, 95 % air, and 100 % relative humidity. For adherent cells, the assay is terminated by the addition of cold TCA. Cells are fixed in situ by the gentle addition of 50 μl of cold 50 % (w/v) TCA (final concentration, 10 % TCA) and incubated for 60 minutes at 4°C. The supernatant is discarded, and the plates are washed five times with tap water and air dried. Sulforhodamine B (SRB) solution (100 μl) at 0.4 % (w/v) in 1 % acetic acid is added to each well, and plates are incubated for 10 minutes at room temperature. After staining, unbound dye is removed by washing five times with 1 % acetic acid and the plates are air dried. Bound stain is subsequently solubilized with 10 mM trizma base, and the absorbance is read on an automated plate reader at a wavelength of 515 nm. For suspension cells, the methodology is the same except that the assay is terminated by fixing settled cells at the bottom of the wells by g ently adding 50 μl of 80 % TCA (final concentration, 16 % TCA). Using the seven absorbance measurements [time zero, (Tz), control growth, (C), and test growth in the presence of drug at the five concentration levels (Ti)], the percentage growth is calculated at each of the drug concentrations levels. Percentage growth inhibition is calculated as:
(§7) [(Ti-Tz)/(C-Tz)] x 100 for concentrations for which Ti>/=Tz
(§8) [(Ti-Tz)/Tz] x 100 for concentrations for which Ti<Tz.
(§9) Three dose response parameters are calculated for each experimental agent. Growth inhibition of […]
(§10) resulting in a 50% reduction in the net protein increase (as measured by SRB staining) in control cells during the drug incubation. The drug concentration resulting in total growth inhibition […]
(§11) (TGI) is calculated from Ti = Tz.

A further assay relates to MALME-3M. Briefly: NCI 60 cell line screen. Particulars: Homo sapiens, Melanoma, read-out: Percent growth. The method, then: as §2, §3, §4, §5, §6, §7, §8, §9, §10, §11
In another assay the test system is CCRF-CEM. The assay is described as follows: NCI 60 cell line screen. The settings on record: Homo sapiens, Leukemia, read-out: Percent growth. The method, then:
as §2, §3, §4, §5, §6, §7, §8, §9, §10, §11

In a further assay the test system is SW-620. The assay is described as follows: NCI 60 cell line screen. The settings on record: Homo sapiens; SW-620, Colon Cancer; read-out: Percent growth. The method, then: as §2, §3, §4, §5, §6, §7, §8, §9, §10, §11
The subject of another assay is MDA-MB-435. Briefly: NCI 60 cell line screen. The settings on record: Homo sapiens; MDA-MB-435, Melanoma; read-out: Percent growth. The protocol: as §2, §3, §4, §5, §6, §7, §8, §9, §10, §11
Another assay deals with BT-549. The assay is described as follows: NCI 60 cell line screen. Particulars: Homo sapiens; BT-549, Breast Cancer; read-out: Percent growth. The protocol:
as §2, §3, §4, §5, §6, §7, §8, §9, §10, §11

Another assay deals with SK-MEL-28. The assay is described as follows: NCI 60 cell line screen. The settings on record: Homo sapiens; SK-MEL-28, Melanoma; read-out: Percent growth. The method, then:
as §2, §3, §4, §5, §6, §7, §8, §9, §10, §11

The next assay has as its system COLO 205. The assay is described as follows: NCI 60 cell line screen. Particulars: Homo sapiens; COLO 205, Colon Cancer; read-out: Percent growth. The method, then: as §2, §3, §4, §5, §6, §7, §8, §9, §10, §11
The subject of another assay is HCC-2998. Briefly: NCI 60 cell line screen. The settings on record: Homo sapiens; HCC-2998, Colon Cancer; read-out: Percent growth. The method, then: as §2, §3, §4, §5, §6, §7, §8, §9, §10, §11
The test system of a further assay is HOP-62. The assay is described as follows: NCI 60 cell line screen. Particulars: Homo sapiens; HOP-62, Non-Small Cell Lung Cancer; read-out: Percent growth. The protocol: as §2, §3, §4, §5, §6, §7, §8, §9, §10, §11
The next assay has as its system A549/ATCC. Briefly: NCI 60 cell line screen. Particulars: Homo sapiens, Non-Small Cell Lung Cancer, read-out: Percent growth. The method, then:
as §2, §3, §4, §5, §6, §7, §8, §9, §10, §11

A further assay relates to ACHN. The assay is described as follows: NCI 60 cell line screen. Particulars: Homo sapiens, Renal Cancer, read-out: Percent growth. The protocol: as §2, §3, §4, §5, §6, §7, §8, §9, §10, §11
The next assay deals with HL-60(TB). Briefly: NCI 60 cell line screen. Particulars: Homo sapiens, Leukemia, read-out: Percent growth. The protocol: as §2, §3, §4, §5, §6, §7, §8, §9, §10, §11

Molecules are shown by their SMILES.

Take `O=S(=O)(NCCCNc1nccc(-n2cnc3ccccc32)n1)c1ccccc1` [12h, N-(3-((4-(1H-benzo [d]imidazol-1-yl)pyrimidin-2-yl)amino)propyl)benzenesulfonamide]: the concentration for half-maximal inhibition (IC50) in the assay on SK-MEL-5 cells was determined as 11.3 ± 0.29 µM; with A375 cells, 9.26 ± 0.16 µM. Further, the activity at 10 µM in the assay on LOX IMVI was found to be 91.7%; with MALME-3M, 108%; with CCRF-CEM, 88.1%; in the assay with SW-620, 107%; in the assay on MDA-MB-435 it was 95.5%; with BT-549, 96.5%. The activity at 10 µM came to 105% with SK-MEL-28; 102% in the assay with COLO 205; 107% with HCC-2998; 96.9% in the assay with HOP-62; 97.6% with A549/ATCC; 95.7% in the assay with ACHN. In the assay with HL-60(TB), the activity at 10 µM stood at 104%.

In the case of `O=S(=O)(NCCCNc1nccc(-n2cnc3ccccc32)n1)c1cccc2ccccc12` [12n, N-(3-((4-(1H-benzo [d]imidazol-1-yl)pyrimidin-2-yl)amino)propyl)naphthalene-1-sulfonamide], the IC50 worked out at 17.9 ± 0.62 µM in the assay with SK-MEL-5 cells and 16.9 ± 0.81 µM with A375 cells. Moreover, the activity at 10 µM in the assay with LOX IMVI came to 85.6%; with MALME-3M it was 98.4%; in the assay on CCRF-CEM, 70.9%; in the assay on SW-620, 106%; with MDA-MB-435, 93.4%; with BT-549, 88.2%. The activity at 10 µM worked out at 103% in the assay on SK-MEL-28; 96.4% with COLO 205; 112% with HCC-2998; 87.1% in the assay on HOP-62; 86.3% in the assay on A549/ATCC; 87.1% in the assay with ACHN. In addition, the activity at 10 µM with HL-60(TB) is 101%.

One may read the IC50 as the concentration that gives 50% inhibition. A lower IC50 goes with greater potency in that assay.
